The test system of one data set is PKC,τ, PKC,α and PKC,γ. As to the kind of experiment: Radioactive in vitro kinase assay of PKC isoforms with nonspecific substrate. It counts as biochemical. Here is the method:
FIG. 2 illustrates NSC305787 and NSC668394 inhibit ezrin T567 phosphorylation. (A) K7M2 metastatic OS cell line was treated with NSC305787 (10 μM) and NSC668394 (10 μM) for 6 hours. […] The effect of NSC305787 and NSC668394 on recombinant ezrin phosphorylation by recombinant PKC, was tested in an in vitro kinase assay. Phoshorylation of ezrin was detected by a phosphospecific antibody following PAGE and immunoblotting. Experiments were repeated three times and densitometric analysis of bands was used for calculation of % inhibition (graphs). Error bars represents s.d. from three independent experiments. Kinase activities of PKC,τ, PKC,α and PKC,γ were also evaluated with a nonspecific substrate in the presence of NSC305787 and NSC668394 by a radioactive in vitro kinase assay. Data analysis was done by using a sigmoidal dose-response equation where log EC50 for each curve with the ezrin substrate and the non-specific substrate were compared to each other (P=0.0118 for NSC305787 and P=0.0084 for NSC668394).
500 ng of recombinant ezrin protein in kinase assay mix (200 μM ATP) was incubated with the compounds at 1-100 μM concentrations for 15 minutes on ice, then 50 ng PKC,τ (Millipore, Billerica, Mass.) was added. Reaction was performed at 30° C. for 30 min and stopped by adding 2× sample buffer. […]

Another data set has as its target T1, PKC,τ (Homo sapiens, UniProt P41743).
T1 sequence (P41743 1-596): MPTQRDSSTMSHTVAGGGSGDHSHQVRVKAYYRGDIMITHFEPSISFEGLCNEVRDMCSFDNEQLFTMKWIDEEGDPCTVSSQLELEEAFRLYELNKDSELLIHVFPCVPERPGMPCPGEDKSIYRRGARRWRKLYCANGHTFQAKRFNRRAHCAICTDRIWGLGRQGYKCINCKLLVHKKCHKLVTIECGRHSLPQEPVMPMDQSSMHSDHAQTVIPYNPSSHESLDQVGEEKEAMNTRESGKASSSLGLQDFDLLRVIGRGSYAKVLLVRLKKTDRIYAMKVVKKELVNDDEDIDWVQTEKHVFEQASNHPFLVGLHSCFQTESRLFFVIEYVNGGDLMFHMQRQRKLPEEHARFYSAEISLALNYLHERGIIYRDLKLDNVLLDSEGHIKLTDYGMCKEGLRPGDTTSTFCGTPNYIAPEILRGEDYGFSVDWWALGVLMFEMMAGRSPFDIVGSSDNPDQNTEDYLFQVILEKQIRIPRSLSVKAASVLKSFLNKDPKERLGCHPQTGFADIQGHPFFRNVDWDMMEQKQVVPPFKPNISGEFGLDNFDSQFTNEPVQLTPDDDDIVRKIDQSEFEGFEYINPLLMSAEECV
As to the kind of experiment: SPR direct binding to PKC,τ (Biacore). The note with it: data not shown. Background: Surface plasmon resonance follows binding to a sensor surface in real time, without labels.

In data set [1] the test system is K7M2, K12 and HUVEC cells. Put plainly: Toxicity to cells at invasion assay concentrations. It counts as cell-based. The note with it: 1 μM and 10 μM; data not shown. Here is the method:
Chemotaxis experiments were performed in 96 well Boyden chamber as described previously (Chen, K., et al., Pediatr. Blood Cancer, 51, 349-355 (2008)). To measure effect of compounds on cellular toxicity, WST viability assay (Roche, Indianapolis, Ind.) was performed in parallel to chemotaxis experiments.

For data set [2], the system named is GFP expressing K7M2 OS cells. Put plainly: Pulmonary metastasis assay (PuMA), lung organ culture. Also noted: species or system mice. The note with it: 10 μM. How it is done: FIG. 5 illustrates NSC305787 and NSC668394 inhibit OS metastatic growth in lung organ culture. GFP expressing K7M2 OS cells (2×10^5) were injected to tail vein of female BALB/c mice. Within 15 min of tumor cells injection, mice were euthanized and lungs were injected with a mixed agarose/medium solution and then were removed. Complete transverse sections (1-2 mm in thickness) were made from each lobe and 4-5 lung sections were placed on a single 1.5×0.7 cm sterile Gelfoam section. Lung sections were incubated at 37° C. in humidified conditions of 5% CO2. Fresh medium or small molecules (10 μM) were replaced every other day. (A) Quantitation of the fluorescence signal from NSC305787 (10 μM) and NSC668394 (10 μM) treated organ cultures over time. Metastatic burden was quantified by measuring the fluorescent area of metastatic cells in each lung section at each time point and was expressed as mean fluorescent area (mean fluorescent area of each lung section over 4 lung sections). Mean fluorescent area was normalized to 100 pixels for day 0 to allow quantitative evaluation of metastatic progression over time. Data are represented as mean .s.d. from three independent experiments. (B) Fluorescence pictures of a representative culture treated with 10 μM NSC305787 and 10 μM NSC668394 are given on the right panel. […]

The target in data set [3] is T2, ezrin / poly-A-binding protein 1 (PABP1) interaction (Mus musculus, UniProt P26040).
T2 construct: endogenous in cells; host or cells: K7M2 osteosarcoma cells
T2 sequence (P26040 whole entry): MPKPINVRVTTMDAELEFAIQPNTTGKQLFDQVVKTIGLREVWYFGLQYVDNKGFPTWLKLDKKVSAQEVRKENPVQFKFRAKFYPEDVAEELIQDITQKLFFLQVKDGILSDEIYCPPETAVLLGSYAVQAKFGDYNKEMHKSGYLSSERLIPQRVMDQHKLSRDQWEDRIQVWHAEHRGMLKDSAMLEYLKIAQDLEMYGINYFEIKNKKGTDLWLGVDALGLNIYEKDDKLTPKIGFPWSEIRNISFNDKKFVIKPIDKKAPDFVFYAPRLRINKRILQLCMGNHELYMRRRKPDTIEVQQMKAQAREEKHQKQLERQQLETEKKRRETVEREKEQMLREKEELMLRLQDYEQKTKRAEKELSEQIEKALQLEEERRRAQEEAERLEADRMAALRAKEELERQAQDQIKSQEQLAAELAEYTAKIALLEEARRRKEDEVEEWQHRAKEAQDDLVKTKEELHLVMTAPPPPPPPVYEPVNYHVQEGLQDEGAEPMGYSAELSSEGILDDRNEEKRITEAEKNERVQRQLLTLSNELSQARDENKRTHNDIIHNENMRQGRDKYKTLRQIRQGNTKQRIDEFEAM
As to the kind of experiment: Ezrin-PABP1 interaction by immunoprecipitation and western blot. In kind it is cell-based. The note with it: cells treated 60 min prior to immunoprecipitation. Here is the method: (A) Total cell lysates from K7M2 osteosarcoma cells were immunoprecipitated by using an anti-ezrin antibody. As a control, non-specific total IgG was used. Immunoprecipitates were run on SDS-PAGE and Western Blot was performed using anti-ezrin (lower panel) and anti-PABP1 (upper panel) antibodies. PABP1 protein was detected in immunoprecipitates of ezrin, suggetsing that these two proteins interact with each other in a protein complex. (B) Ezrin-PABP1 interaction was also evaluated in an ELISA experiment where recombinant ezrin protein was immmobilized on surface and total cell lysates from osteosarcoma cells were applied on top. Amount of PABP1 binding to ezrin on the surface was detected by a anti-PABP1 primary antibody followed by enzyme linked secondary antibody. (C) Immunoprecipitation and western experiment was prepared as described in panel A. Cells were treated with NSC305787 (compound 8) and NSC668394 (compound 16) for 60 min prior to immunoprecipitation. Both NSC305787 and NSC668394 inhibited interaction of PABP1 with ezrin
A general note: In western blotting, separated proteins are transferred to a membrane and probed.

For orientation: Kd means the free concentration of one partner at which half of the binding sites on the other are occupied at equilibrium, for simple one-to-one binding. A lower Kd goes with a tighter complex.

Turning to `OC(c1cc(C23CC4CC(CC(C4)C2)C3)nc2c(Cl)cc(Cl)cc12)C1CCCCN1` (stereo not drawn) [NSC305787], in the data set with PKC,τ, PKC,α and PKC,γ (nonspecific substrate), the “concentration to inhibit all three PKC isoforms” value is roughly 50 µM. Also, the “fold higher concentration to inhibit PKC isoforms than to inhibit ezrin phosphorylation” value in the data set on PKC,τ, PKC,α and PKC,γ (nonspecific substrate vs ezrin substrate) came to 10 fold. On PKC,τ, the Kd worked out at 172 µM. Besides, the “toxicity to K7M2, K12 and HUVEC cells” value in data set [1] is listed as “not toxic”. Also, the “lung metastasis of K7M2 cells in lung organ culture (GFP fluorescence)” value in data set [2] was “significantly inhibited”. The “interaction of PABP1 with ezrin” value in data set [3] is “inhibited”.

The values above are taken from US9522908B2, “Ezrin inhibitors and methods of making and using” (Georgetown University, priority 2010, dated 2016).
